tested on: Canis familiaris; assay: Inhibition of gastric acid secretion in dogs stimulated by gastrin tetrapeptide when administered perorally; type: functional; conditions: Canis lupus familiaris, Stomach, po

**Q.** Which ED50 does the source give for `Cc1cc(CO)nc(N(CCN(C(C)C)C(C)C)C(=O)N(C)C)c1` here?
**A.** 29.4 µmol/kg

**Q.** For `[2H]C([2H])([2H])c1cc(C)nc(N(CCN(C(C)C)C(C)C)C(=O)N(C)C)c1`, which ED50 is on record?
**A.** 7.26 µmol/kg

**Q.** For `Cc1cc(CO)cc(N(CCN(C(C)C)C(C)C)C(=O)N(C)C)n1`, which ED50 is on record?
**A.** 23.3 µmol/kg

**Q.** With `CN/C(=N\CCSCc1nc[nH]c1C)NC#N` [CIMETIDINE] as the compound, how does the ED50 read?
**A.** 14.3 µmol/kg

**Q.** For `CC(C)N(CCN(C(=O)N(C)C)c1cc(C(F)(F)F)cc(C(F)(F)F)n1)C(C)C`, which ED50 is on record?
**A.** 43.9 µmol/kg

**Q.** Which ED50 does the source give for `Cc1cc(C)nc(N(CCN(C(C)C)C(C)C)C(=O)N(C)C)c1` here?
**A.** 15.3 µmol/kg
